# Paper PMC6804243, “Small-Molecule Inhibition of UBE2T/FANCL-Mediated Ubiquitylation in the Fanconi Anemia Pathway” (ACS Chemical Biology, 2019)
# “Also recorded” adds a separate entry of the source.
# What was measured:
# Type in all cases: biochemical
# UBE2D1 / GST-RNF8 = test system: T1, UBE2D1 / GST-RNF8; assay: Gel-based ubiquitylation assay, E2 = UBE2D1, E3 = GST-RNF8; settings: 10 min at 37 °C, Western blot
# T1 construct: His6 (N); made in house; host or cells: E. coli Rosetta (DE3)
# Procedure: (§1) Figure 2 Gel-based ubiquitylation assays with confirmed HTRF hits. […] Western blots (WB) probed for GST or biotin as labeled. Reactions contained 20 nM His6-UBE1, 50 nM E2, 250 nM GST-E3, 500 nM biotinylated ubiquitin: (a) E2 = UBE2T, E3 = GST-FANCLRING, 30 min of reaction at 37 °C; (b) E2 = UBE2D1, E3 = GST-FANCLRING, 30 min of reaction at 37 °C; and (c) E2 = UBE2D1, E3 = GST-RNF8, 10 min of reaction at 37 °C.
# A further ubiquitylation assay was performed with an alternative E3, RNF8, which also plays important roles in the DDR.[14] In contrast to GST-FANCLRING, long polyubiquitin chains were attached to GST-RNF8 by UBE2D1 (Figure 2c).
# (§2) Purified protein was concentrated using a Vivaspin-6 concentrator with a 10 kDa MW cut-off (Vivascience) and flash-frozen in small aliquots for storage at […]
# (§3) Cy5 labelling of ubiquitin. To a 5 mg/mL solution of recombinant human ubiquitin (Boston Biochem) in 0.1 M NaHCO3 pH 8.3, was added a 4-fold molar excess of Cyanine5 NHS ester (Lumiprobe). The reaction was incubated at 23 °C for 4 hours in the dark. The protein was separated from unreacted dye by passage through a PD-10 desalting column (GE Healthcare) equilibrated with PBS. Purified protein was concentrated using a Vivaspin-6 concentrator with a 3 kDa MW cut-off (Vivascience) and flash-frozen in small aliquots for storage […]
# (§4) Homogeneous Time-Resolved Fluorescence (HTRF) Assay. GST-FANCLRING (200 nM) was incubated with anti-GST Tb (CisBio, #61GSTTL) (2.5 ng final) at room temperature for 30 minutes in assay buffer (50 mM Tris-HCl pH 8.0, 1 mM TCEP, 5 mM MgCl2, 0.005% Tween-20). Meanwhile, 10 μL of UBE2T in assay buffer (or assay buffer alone for no enzyme controls) was incubated in a white 384-well plate (Corning) with 20 nL DMSO or compound in DMSO. After 30 minutes, the GST-RINGRING solution was added to an equal volume solution containing His-UBE1 (Boston Biochem) (16 nM), Cy5-ubiquitin (400 nM), ATP (0.8 mM) in assay buffer. 10 μL of this solution was immediately added to each well of the 384 -well plate containing UBE2T or buffer. F inal concentrations: His -UBE1 (4 nM), UBE2T (6 nM), GST -RINGRING (50 nM), Cy5-ubiquitin (100 nM), ATP (0.2 mM), compound (10 or 20 μM) in 0.1 %
# (§5) (v/v) DMSO. After a 10 minute incubation at 23 °C, 5 µL of a 50 mM EDTA solution were added to each well to stop the reaction. Signal was measured at λEx 340 nm and λEm 665 nm and 620 nm using a PHERAstar FS plate reader
# (§6) (BMG Labtech). A ratio was calculated as [λEm(665)/λEm(620)] × 104 for each well and this was used to determine the percent inhibition for test compounds.
# (§7) Gel-based ubiquitylation assays. Assays were carried out in a total volume of 10 µL containing 20 nM His6-UBE1 (Boston Biochem), 50 nM UBE2T, 250 nM GST-E3 and 500 nM biotinylated ubiquitin (Boston Biochem) in buffer (50 […]
# (§8) Reaction mixtures were incubated for the indicated time at 37 °C and stopped by the addition of 2X reducing SDS -PAGE sample buffer, separated on NuPAGE Novex 4 –12% Bis/Tris gradient gels (Invitrogen) and visualized by Western blotting using the indicated antibodies (Table S3).
# Cell culture. U2OS cells were cultured at 37 °C in a humidified atmosphere and 5% (v/v) CO2 in Dulbecco's Modified Eagle Medium (DMEM; Sigma-Aldrich) supplemented with 10% (v/v) fetal bovine serum (FBS), 100 units/ml of penicillin, […] of streptomycin and 292 μg/mL L-glutamine.
# Cell extract preparation and immunoblotting. U2OS cells were lysed in buffer containing 50 mM Tris-HCl pH 7.5, 2% SDS, 10 mM NEM, cocktail protease inhibitor (Roche) and phosphatase inhibitor cocktail followed by sonication 100 µg of extracts were boiled for 5 mins at 95 °C in 5X loading buffer and loaded onto NuPAGE Novex 4–12% Bis/Tris gradient gels
# (Invitrogen), or NuPAGE Novex 3-8% Tris/Acetate gradient gels (Invitrogen) for detection of mUb-FANCD2. After separation the gels were transferred to PVDF and the membranes were blocked with Tris-buffered saline containing 0.1% (v/v) Tween-20 (TBST) and 5% (v/v) bovine serum albumin (BSA) and […]
# UBE2D1 / GST-FANCLRING = test system: T2, UBE2D1 / GST-FANCLRING; assay: Gel-based ubiquitylation assay, E2 = UBE2D1, E3 = GST-FANCLRING; settings: 30 min at 37 °C, Western blot
# T2 construct: the RING domain (residues 275–375) of the E3 FANCL (FANCLRING); His6 (N); made in house; host or cells: E. coli Rosetta (DE3)
# Procedure: as §1
# In order to explore the selectivity of CU1, CU2, CU9, CU10, and CU12, we conducted a counter-screen against other E2 and E3 combinations. Since members of the UBE2D family of E2s are known to ubiquitylate multiple substrates in vitro,[13] a ubiquitylation assay featuring UBE2D1 and GST-FANCLRING was performed. With UBE2D1, multiple ubiquitylated GST-FANCLRING species could be observed (Figure 2b).
# as §2, §3, §4, §5, §6, §7, §8
# Cell culture. […]
# UBE2T = test system: T3, UBE2T; assay: Gel-based ubiquitylation assay (UBE2T/GST-FANCLRING), blot probed for UBE2T; settings: compound 100 μM, Western blot probed for UBE2T
# T3 construct: His6 (N); made in house; host or cells: E. coli Rosetta (DE3)
Structure (SMILES),ubiquitylation of GST-RNF8 and UBE2D1 (UBE2D1 / GST-RNF8),ubiquitylation of GST-RNF8 and UBE2D1 (UBE2D1 / GST-RNF8; listed as CU 1),ubiquitylation of GST-FANCLRING (UBE2D1 / GST-FANCLRING),ubiquitylation of UBE2T (UBE2T),ubiquitylation of UBE2T (UBE2T; listed as 2),ubiquitylation of UBE2T (UBE2T; listed as 9),ubiquitylation of UBE2T (UBE2T; listed as 12)
NCCN1C(=O)CC[C@H]2CN(Cc3cccc(-c4ccco4)c3)CC[C@H]21 [CU1],but not GST-RNF8,no detectable effects on ubiquitylation of GST-RNF8 and UBE2D1,essentially abolished the ubiquitylation of GST-FANCLRING,did not affect ubiquitylation of either UBE2T or UBE1; also recorded: unaffected,–,–,–
CCN1CCN(c2cc(C)nc3nc(CN4CCCCC4C)nn23)CC1 (stereo not shown) [CU2],but not GST-RNF8; also recorded: no detectable effects on ubiquitylation of GST-RNF8 and UBE2D1,–,essentially abolished the ubiquitylation of GST-FANCLRING,did not affect ubiquitylation of either UBE2T or UBE1,unaffected,–,–
Cc1nnc(N(C)CC2CCN(CC(C)O)CC2)c(C#N)c1C (stereo not shown) [CU9],but not GST-RNF8; also recorded: no detectable effects on ubiquitylation of GST-RNF8 and UBE2D1,–,essentially abolished the ubiquitylation of GST-FANCLRING,did not affect ubiquitylation of either UBE2T or UBE1,–,unaffected,–
NC(=O)[C@@H]1CCCN1C(=O)c1cc(-n2cccc2)ccc1Cl [CU12],appeared to inhibit the ubiquitylation of all species in the assay,–,essentially abolished the ubiquitylation of GST-FANCLRING,prevented the ubiquitylation of UBE2T,–,–,essentially completely inhibited
